Assay results as given in US12427134B2, “Methods of reducing the risk of cardiovascular events in a subject with atrial fibrillation and/or atrial flutter” (priority 2019, dated 2025).

System: hypertriglyceridemic patients with cardiovascular disease or at high risk for cardiovascular disease
Assay: REDUCE-IT: subgroup analyses of the primary and key secondary endpoints
Assay type: in vivo, human
Conditions: for Primary endpoint, patients with event (%) / Time to primary endpoint, HR (95% CI) AMR101/Placebo: ITT
Method: Exploratory Subgroup Analyses: Analyses of the effects that patients off study drug and withdrawn from study have on the primary endpoint were performed. Subgroup analyses of the primary and key secondary endpoints were performed as described for the primary endpoint. For each subgroup, Kaplan-Meier estimates, the log-rank test stratified by stratification factors used at randomization (except where the subgroup was a stratification factor), and HRs and CIs from the Cox proportional hazards model as specified for the primary efficacy endpoint, were summarized by treatment group. Demographic, disease, treatment, and baseline lipid and lipoproteins parameters were explored.
Demographic parameters included: Gender; age at baseline (<65 years and ≥65 years); race (white and nonwhite, or any other subset with at least 10% of the total number of patients); geographical region (Westernized, Eastern European, and Asia Pacific countries); and baseline ezetimibe use (yes/no).
Disease parameters included: CV risk category; the presence/absence of diabetes at baseline; and renal dysfunction at baseline (estimated glomerular filtration rate [eGFR]<60 mL/min/1.73 m^2) using the Chronic Kidney Disease Epidemiology Collaboration (CKD-EPI) equation as follows: eGFR=141×min(Scr/κ,1)^α×max(Scr/κ,1)^[…]^Age×1.018 [if female]×1.159 [if black]
Treatment Parameters included: Statin intensity at baseline (statin type and regimen); and statin intensity categories as defined in ACC/AHA Cholesterol Guidelines (Stone 2013) and patient's 10-year CV Risk Score (Goff 2013).
Baseline Lipid and Lipoprotein Parameter included: LDL-C (by tertile); HDL-C (by tertile, and tertile by gender); TG (by tertile, and tertile by gender); RLP-C (by tertile); TG ≥150 mg/dL and TG <150 mg/dL; TG ≥200 mg/dL and TG <200 mg/dL; TG ≥median, TG <median; combined highest tertile for TG and lowest tertile for HDL-C; gender-specific highest tertile for TG and lowest tertile for HDL-C; TG ≥200 mg/dL with HDL-C ≤35 mg/dL; hsCRP (≤3 mg/L and >3 mg/L) and by gender; hsCRP (≤2 mg/L and >2 mg/L) and by gender; Apo B (by tertile); non-HDL-C (by tertile); baseline hemoglobin A1c (Hb1c) value (<6.5%, ≥6.5%); baseline PAD; and baseline TG levels ≥150 mg/dL with high-density lipoprotein cholesterol (HDL-C) levels ≤40 mg/dL for males and ≤50 mg/dL for females.
A Cox proportional hazard (PH) model as mentioned above but additionally with baseline TG as a covariate were fitted to the data at each interim. Diagnostic plots for the PH assumption were evaluated. The consistency of the treatment effects in subgroups was assessed for the primary and key secondary efficacy endpoints. For each subgroup variable, a Cox PH model with terms for treatment, stratification factors (with the exception of those subgroup variables related to the stratification factors, i.e., CV risk category), subgroup, and treatment-by-subgroup interaction were performed. The main treatment effect was tested with this model. P-values for testing the interaction terms <0.15 were considered significant. Results were presented in a Forest plot.
Subgroup analyses of the primary and key secondary endpoints were performed as described for the primary endpoint. For each subgroup, Kaplan-Meier estimates, the log-rank test stratified by stratification factors used at randomization (except where the subgroup was a stratification factor), and HRs and CIs from the Cox proportional hazards model as specified for the primary efficacy endpoint, were summarized by treatment group. All subgroup analyses were conducted for the ITT, mITT and PP populations.
Of note regarding the following subgroup analyses, per study design, subgroup analyses are underpowered to detect statistically significant results within each individual subgroup, particularly when a subgroup represents less than 50% of the enrolled population, and when a subgroup has low event rates. […]

[1] = Overall (Males and Females), TG Lowest Tertile (≥81.25 to ≤190 mg/dL)
[2] = Overall (Males and Females), TG Middle Tertile (>190 to ≤250 mg/dL)
[3] = RLP-C (Derived) Highest Tertile (>34.30 to ≤105.86 mg/dL)
[4] = RLP-C (Derived) Lowest Tertile (≥11.89 to ≤28.09 mg/dL)
[5] = RLP-C (Derived) Middle Tertile (>28.09 to ≤34.30 mg/dL)
[6] = TG Lower Half (≥81.25 and ≤216 mg/dL)
[7] = TG Upper Half (>216 and ≤1401 mg/dL)
[8] = above or at the median baseline TG (>216 mg/dL)
[9] = baseline TG <150 mg/dL and HDL-C >40 mg/dL (males) or >50 mg/dL (females)
[10] = baseline TG ≥150 mg/dL and HDL-C ≤40 mg/dL (males) or ≤50 mg/dL (females)
[11] = below the median baseline TG (≥81.25 and ≤216 mg/dL)
[12] = females, middle tertile baseline TG (>186 to ≤241.5 mg/dL)
[13] = highest tertile baseline HDL-C (>43.5 to ≤107.5 mg/dL)
[14] = highest tertile baseline RLP-C (>34.30 to ≤105.86 mg/dL)
[15] = highest tertile baseline TG (>250 to ≤401 mg/dL)
[16] = highest tertile baseline TG and lowest tertile baseline HDL-C
[17] = history of peripheral artery disease
[18] = lowest tertile baseline HDL-C (≥17 to ≤36.5 mg/dL)
[19] = lowest tertile baseline RLP-C (≥11.89 to ≤28.09 mg/dL)
[20] = lowest tertile baseline TG (≥81.25 to ≤190 mg/dL)
[21] = middle tertile baseline HDL-C (>36.5 to ≤43.5 mg/dL)
[22] = middle tertile baseline RLP-C (>28.09 to ≤34.30 mg/dL)
[23] = middle tertile baseline TG (>190 to ≤250 mg/dL)
[24] = not in the highest tertile baseline TG and lowest tertile baseline HDL-C
[25] = primary prevention subgroup (CV risk category 2)
[26] = secondary prevention subgroup (CV risk category 1)
[27] = without atherogenic dyslipidemia
[28] = without history of peripheral artery disease

## CC/C=C\C/C=C\C/C=C\C/C=C\C/C=C\CCCC(=O)OCC [AMR101, eicosapentaenoic acid ethyl ester]
[1]
  Primary endpoint, patients with event (%): 16.9%
  Time to primary endpoint, HR (95% CI) AMR101/Placebo: 0.789
[2]
  Primary endpoint, patients with event (%): 18.0%
  Time to primary endpoint, HR (95% CI) AMR101/Placebo: 0.804
PAD History - No
  Primary endpoint, patients with event (%): 16.3%
  Time to primary endpoint, HR (95% CI) AMR101/Placebo: 0.744
PAD History - Yes
  Primary endpoint, patients with event (%): 26.6%
  Time to primary endpoint, HR (95% CI) AMR101/Placebo: 0.803
[3]
  Primary endpoint, patients with event (%): 17.8%
  Time to primary endpoint, HR (95% CI) AMR101/Placebo: 0.715
[4]
  Primary endpoint, patients with event (%): 17.1%
  Time to primary endpoint, HR (95% CI) AMR101/Placebo: 0.806
[5]
  Primary endpoint, patients with event (%): 16.8%
  Time to primary endpoint, HR (95% CI) AMR101/Placebo: 0.750
[6]
  Primary endpoint, patients with event (%): 17.3%
  Time to primary endpoint, HR (95% CI) AMR101/Placebo: 0.803
[7]
  Primary endpoint, patients with event (%): 17.2%
  Time to primary endpoint, HR (95% CI) AMR101/Placebo: 0.709
US patients
  Primary endpoint event, patients: 18.2%
  Primary endpoint, HR: 0.687
[8]
  Primary endpoint event, patients: 17.2%
  Primary endpoint, HR: 0.709
Atherogenic dyslipidemia (baseline TG ≥200 mg/dL and HDL-C ≤35 mg/dL)
  Primary endpoint event, patients: 18.1%
Baseline HbA1c <6.5%
  Primary endpoint event, patients: 16.5%
  Primary endpoint, HR: 0.793
Baseline HbA1c ≥6.5%
  Primary endpoint event, patients: 18.1%
  Primary endpoint, HR: 0.701
[9]
  Primary endpoint event, patients: 18.2%
  Primary endpoint, HR: 0.842
[10]
  Primary endpoint event, patients: 16.5%
  Primary endpoint, HR: 0.691
Baseline hsCRP >2 mg/L
  Primary endpoint event, patients: 19.2%
  Primary endpoint, HR: 0.813
Baseline hsCRP ≤2 mg/L
  Primary endpoint event, patients: 15.0%
  Primary endpoint, HR: 0.680
[11]
  Primary endpoint event, patients: 17.3%
  Primary endpoint, HR: 0.803
[12]
  Primary endpoint event, patients: 15.1%
  Primary endpoint, HR: 1.077
[13]
  Primary endpoint event, patients: 15.9%
  Primary endpoint, HR: 0.812
[14]
  Primary endpoint event, patients: 17.8%
  Primary endpoint, HR: 0.715
[15]
  Primary endpoint event, patients: 16.9%
  Primary endpoint, HR: 0.675
[16]
  Primary endpoint event, patients: 19.1%
  Primary endpoint, HR: 0.670
[17]
  Primary endpoint event, patients: 26.6%
  Primary endpoint, HR: 0.803
[18]
  Primary endpoint event, patients: 18.1%
  Primary endpoint, HR: 0.667
[19]
  Primary endpoint event, patients: 17.1%
  Primary endpoint, HR: 0.806
[20]
  Primary endpoint event, patients: 16.9%
  Primary endpoint, HR: 0.789
[21]
  Primary endpoint event, patients: 17.6%
  Primary endpoint, HR: 0.800
[22]
  Primary endpoint event, patients: 16.8%
  Primary endpoint, HR: 0.750
[23]
  Primary endpoint event, patients: 18.0%
  Primary endpoint, HR: 0.804
non-US patients
  Primary endpoint event, patients: 16.7%
  Primary endpoint, HR: 0.803
non-white patients
  Key secondary endpoint event, patients: 10.3%
  Key secondary endpoint, HR: 0.554
[24]
  Primary endpoint event, patients: 16.3%
  Primary endpoint, HR: 0.679
Patients on statins of low intensity at baseline
  Key secondary endpoint, point estimate of the HR: 1.200
[25]
  Primary endpoint event, patients: 12.2%
  Primary endpoint, HR: 0.876
[26]
  Primary endpoint event, patients: 19.3%
  Primary endpoint, HR: 0.726
White patients
  Key secondary endpoint event, patients: 11.3%
  Key secondary endpoint, HR: 0.758
[27]
  Primary endpoint event, patients: 17.0%
  Primary endpoint, HR: 0.791
[28]
  Primary endpoint event, patients: 16.3%
  Primary endpoint, HR: 0.744
≥65 years subgroup
  Key secondary endpoint event, patients: 13.9%
  Key secondary endpoint, HR: 0.824
  Primary endpoint event, patients: 20.6%
  Primary endpoint, HR: 0.873
